PMC5441580, “GPR40 partial agonist MK-2305 lower fasting glucose in the Goto Kakizaki rat via suppression of endogenous glucose production” (PLoS ONE, 2017)
Several values for one entry are separate records, joined by “and”; a condition that tells them apart may be missing. Identical values can stand only once.

How the values were obtained:
rat GPR40 (FFAR1) = target: T1, rat GPR40 (FFAR1) (Rattus norvegicus, UniProt Q8K3T4); assay: IP1 functional assay, CHO cells stably expressing rat GPR40; assay type: cell-based; settings: for Receptor Activation (%): representative curve Fig 1B
T1 construct: expressed in transfected cells
Experimental: CHO Jump-IN cells stably expressing rat GPR40 or HEK293 Jump-IN cells stably expressing rat GPR120 were cultured in DMEM media supplemented with 10% dialyzed FBS, non-essential amino acids, penicillin/streptomycin, 10 μg/ml Blasticidin S HCL and 200 or 100 μg/ml Hygromycin B, respectively (Life Technologies). Cell stocks were maintained and grown in a sub-confluent state using standard cell culture procedures. The day before the experiment, the cells were harvested with non-enzymatic cell dissociation buffer and re-suspended in DMEM supplemented as described above at 0.15 million cells per ml. […] The seeded plates were incubated overnight at 37°C in a humidified environment.
On the day of the experiment, the growth media was removed from the assay plate by centrifugation using a BlueCatBio BlueWasher, protocol #21 “Light Dry” and 10 μl of IP1 stimulation buffer (prepared according to the Cisbio IP-one Tb HTRF kit) is added to each well. Test compounds were dissolved and serially diluted in DMSO as 200X the final assay concentration and 50 nl of the compound dilution was acoustically added to each well of the assay plates. The plates were then incubated for 60 minutes at room temperature and 10 μl of detection buffer (prepared according to the IP-one Tb HTRF kit) is added to each well of the assay plate. The plates were then incubated for one additional hour at room temperature. […] For each assay, a standard curve plate in which IP1 is titrated is also included. […] The % activation is then plotted versus the concentration of test compound and the dose response curve fitted to a standard 4-paramater non-linear regression model using a custom in-house developed software package. Maximal % activation and EC50 are then determined for each test compound.

Rat PPARα = target: T2, Rat PPARα (Rattus norvegicus, UniProt P37230); assay: cell-based nuclear receptor profiling (Indigo Biosciences), PPARα
T2 sequence (P37230 1-468): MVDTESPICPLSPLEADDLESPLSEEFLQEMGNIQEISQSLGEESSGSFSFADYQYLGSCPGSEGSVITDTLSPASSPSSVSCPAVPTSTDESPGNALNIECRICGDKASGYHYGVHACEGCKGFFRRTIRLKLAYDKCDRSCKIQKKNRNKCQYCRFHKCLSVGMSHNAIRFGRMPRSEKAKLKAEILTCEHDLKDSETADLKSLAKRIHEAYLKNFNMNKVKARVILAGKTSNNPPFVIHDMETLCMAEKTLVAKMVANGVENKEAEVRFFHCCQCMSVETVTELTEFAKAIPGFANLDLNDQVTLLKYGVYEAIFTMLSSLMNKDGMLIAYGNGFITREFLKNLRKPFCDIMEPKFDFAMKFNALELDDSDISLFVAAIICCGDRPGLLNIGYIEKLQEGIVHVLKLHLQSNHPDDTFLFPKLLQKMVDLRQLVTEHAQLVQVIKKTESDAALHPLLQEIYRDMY
Experimental: Rat PPARα, PPARδ, and PPARγ activities were determined by Indigo Biosciences (State College, PA) cell-based nuclear receptor profiling service.

[1] = plasma exposure of the compounds on day 14 of the chronic study; assay type: in vivo, rat; settings: day 14, similar at fed and fasted time points, GK rats
Experimental: At the start of the study, fed glucose was measured at 8 A.M., and animals were selected and sorted into treatment groups based on ambient glucose (n = 10/male GK group, n = 6/male WKY control group). Animals were then placed on diet (LabDiet # 5001) that contained, or was devoid of, compound at the daily doses indicated. Fed blood glucose, food intake, and body weights were determined on days 0, 1, 3, 7, and 14 of study at 8 A.M. On days 7 and 14, food was removed for 5 h and plasma glucose was measured. Percent inhibitions were calculated as the percent reduction of blood glucose from the average value for vehicle controls. On day 14, blood was collected from the tail vein (20 μl) after the morning glucose measurement and after 5 h fast from a subset of n = 3 rats per treatment group to determine the ambient and fasted exposure of the compounds in circulation. The blood was stored at 4°C in 0.1 M sodium monocitrate for subsequent analysis. Animals were then re-fed their respective diet treatments. On day 20 of treatment at 8 A.M., blood glucose was measured and then animals were euthanized via CO2 asphyxiation. Blood and liver tissue were sampled, processed, and stored at -80°C until analysis.

T1 sequence (Q8K3T4 whole entry): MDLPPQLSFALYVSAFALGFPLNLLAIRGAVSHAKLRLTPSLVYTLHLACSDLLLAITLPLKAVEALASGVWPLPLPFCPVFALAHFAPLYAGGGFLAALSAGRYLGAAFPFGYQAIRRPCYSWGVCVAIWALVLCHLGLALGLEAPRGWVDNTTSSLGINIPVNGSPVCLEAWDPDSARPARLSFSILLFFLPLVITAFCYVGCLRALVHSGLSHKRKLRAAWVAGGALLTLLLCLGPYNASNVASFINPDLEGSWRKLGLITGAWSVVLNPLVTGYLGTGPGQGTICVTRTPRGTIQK

Compound: O=C1NC(=O)C(C2CCOc3cc(Oc4ccc(C(F)(F)F)cc4Cl)ccc32)S1 (stereo not shown) [MK-2305]
- selectivity for activation of rat GPR40 vs. GPR120, GPR41, GPR43, PPARα, PPARδ, PPARγ (rat GPR40 (FFAR1)): highly selective
- Receptor Activation (%) (rat GPR40 (FFAR1); Concentration 2.00E-06 M): 154%
- Receptor Activation (%) (rat GPR40 (FFAR1); Concentration 2.00E-07 M): 169%
- Receptor Activation (%) (rat GPR40 (FFAR1); Concentration 2.00E-08 M): 136%
- Receptor Activation (%) (rat GPR40 (FFAR1); Concentration 2.00E-09 M): 35%
- Receptor Activation (%) (rat GPR40 (FFAR1); Concentration 2.00E-10 M): 5.69%
- Receptor Activation (%) (rat GPR40 (FFAR1); Concentration 6.00E-07 M): 163%
- Receptor Activation (%) (rat GPR40 (FFAR1); Concentration 6.00E-08 M): 133%
- Receptor Activation (%) (rat GPR40 (FFAR1); Concentration 6.00E-09 M): 74%
- Receptor Activation (%) (rat GPR40 (FFAR1); Concentration 6.00E-10 M): 16%
- Receptor Activation (%) (rat GPR40 (FFAR1); Concentration 6.00E-11 M): -6%
- EC50 (rat GPR40 (FFAR1); IP1 accumulation, CHO cells expressing rat GPR40, mean ± SD, N = 29): 6 ± 2.9 nM
- % Activation (rat GPR40 (FFAR1); individual experiments (raw data of Table 1)): 118% and 159% and 181% and 151% and 130% and 184% and 179% and 195% and 135% and 146% and 161% and 144% and 191% and 182% and 204% and 258% and 168% and 171% and 187% and 162% and 170% and 165% and 199% and 155% and 137% and 160% and 91%
- % Activation (rat GPR40 (FFAR1); maximal activation, percentage of the control response of an in-house partial agonist, mean ± SD): 166% and 166 ± 31^1%
- EC50 (Rat PPARα): > 10000 nM
- % Activation (Rat PPARα; @ 10 μM): -0.2 @ 10 μM % and -0.24%
- % Effect (Rat PPARα; Dose 0.309 nM): -0.03%
- % Effect (Rat PPARα; Dose 0.981 nM): -0.05%
- % Effect (Rat PPARα; Dose 3.11 nM): -0.11%
- % Effect (Rat PPARα; Dose 9.85 nM): -0.1%
- % Effect (Rat PPARα; Dose 31.2 nM): -0.09%
- % Effect (Rat PPARα; Dose 99 nM): -0.06%
- % Effect (Rat PPARα; Dose 314 nM): -0.09%
- % Effect (Rat PPARα; Dose 995 nM): -0.13%
- % Effect (Rat PPARα; Dose 3155 nM): -0.18%
- % Effect (Rat PPARα; Dose 10000 nM): -0.24%
- plasma exposure ([1]; 10 mg/kg in feed): ~ 15 μM
- plasma exposure ([1]; 30 mg/kg in feed): ~ 39 μM
